Test results as given in patent US20210100905A1, “APPLICATION OF COMPOUND OR TRADITIONAL CHINESE MEDICINE EXTRACT IN PREPARATION OF NUCLEIC ACID DELIVERY AGENT, AND RELATED PRODUCTS” (INSTITUTE OF BASIC MEDICAL SCIENCES CHINESE ACADEMY OF …, priority 2018, published 2021).
Entries after “also recorded” stand apart in the source; their conditions may differ.

Key:
A549 cells [1] = experiment: Digital PCR (ddPCR) detection of the efficiency of nucleic acid delivery by lipid; assay type: cell-based, human; conditions: boiling or reverse evaporation method; samples after 6 hours (No. 39: reverse evaporation, 6 and 12 hours)
From the text: 2.1 Experimental materials: A549 cells were purchased from the Cell Center of the Institute of Basic Medical Sciences, Chinese Academy of Medical Sciences, TRIzol lysis buffer was purchased from Sigma, High capacity cRNA Reverse Transcription Kit was purchased from ABI, USA, and the digital PCR related reagents were purchased from Bio-Rad USA.
(§1) 2.2 Experimental method: the total cellular RNA was collected and extracted by TRIzol lysis buffer according to the above methods, and reverse transcribed to cDNA using High capacity cRNA Reverse Transcription Kit, and the cDNA from different groups was subject to digital PCR reaction. Refering to the QX200 Droplet Reader and QuantaSoft Software manual for the protocols, the results were analyzed using QuantaSoft software.
as §1, with “method:” for “method: the”, “total” for “total cellular”, “method,” for “methods,”, “subjected” for “subject”, “Refer” for “Refering”, “protocols;” for “protocols,”
(§2) 2.2 Experimental method: Total RNA was collected and extracted by TRIzol lysis buffer according to the above method, and reverse transcribed to cDNA using TaqMan™ MicroRNA Reverse Transcription KitHigh, and the cDNA from different groups was subjected to digital PCR reaction. Refer to the QX200 Droplet Reader and QuantaSoft Software manual for the protocols; the results were analyzed using QuantaSoft software.
as §2, with “reversed” for “reverse transcribed”, “High capacity cRNA” for “TaqMan™ MicroRNA”, “Kit,” for “KitHigh,”

A549 cells [2] = experiment: Confocal fluorescence microscopy of nucleic acid delivered by lipid; assay type: cell-based, human; conditions: boiling method, 4 μl lipid, 6 hours co-incubation
Experimental: Experimental materials: A549 cells (purchased from the Cell Center of the Chinese Academy of Medical Sciences), PGY-sRNA-6-Cy3 (purchased from Ribobio Biotechnology Co., Ltd.), lipid No. 41, Zeiss LSM780 (purchased from Zeiss, Germany), Alexa Fluor® 488 phalloidin (purchased from Invitrogen, USA), DAPI (purchased from Invitrogen, USA), paraformaldehyde (purchased from sigma, USA).
(§3) Experimental methods: PGY-sRNA-6-FAM was dissolved in 100 μl water, mixed with 4 μl lipid, and prepared by the boiling method. Then the mixture was dropped into A549 cells, and after 6 hours of co-incubation, the samples were washed three times with PBS, fixed with 4% paraformaldehyde, washed three times with PBS, stained with Alexa Fluor® 488 phalloidin for 30 min, washed 3 times with PBS, and stained with DAPI for 5 min, washed with PBS, and then sealed.
as §3, with “method:” for “methods:”, “water, and” for “water,”, “by” for “by the”, “Then,” for “Then”, “PBS washed,” for “washed with PBS,”

[3] = In vivo delivery of single-stranded sRNA by single lipid, gavage (Example 11); design: species or system C57 mice; conditions: 10 μL lipid, sRNA 1 nmol each, 12 hours; for delivery of sRNA single-stranded nucleic acid into mouse blood: FIGS. 108, 112-115, oral (gavage), heating method, vs POPC and Lipofectamine RNAiMAX
Experimental: 1. Experimental animals: C57 mice, male, approximately 6 weeks old.
2. Manufacture of lipid mixture: the prepration was conducted on the basis of a dose of 10 μ1 lipid-1 nmol sRNA per mouse as follows: dissolved 1 nmol of each sRNA in 500 μl DEPC water, added 10 μl of the corresponding lipid, pipette to mix thoroughly, and then naturally cooled down after water bath for 15 min at 90° C., and administered via gavage.
1) Tissue sampling and extraction of RNA: 6 hours after gavage in mice, took 500 μl of blood from the eyeball, added 1.5 ml Trizol Reagent LS to thoroughly mix and lyse, added 3 ml Trizol Reagent (purchased from Invitrogen) to the tissue samples and homogenized until complete lysis. Tissues sampled: live/stomach/small intestine.
2) Reverse transcription of sRNA to cDNA: Reverse Transcription Kit (High-Capacity cDNA Reverse Transcription Kits, Applied Biosystems, cat. no. 4368813), was used to reverse transcribe the total RNA to cDNA, and the reverse system was as follows: template RNA (150 ng/μL) 10 μL, 10× RT buffer, 2.0 μL, 25× dNTP Mix (100 mM) 0.8 μL, random primers 2.0 μL, the Multi Scribe™ reverse Transcriptase 1.0 μL, RNase inhibitor 1.0 μL, nuclease-free H2O 3.2 μL. After a brief centrifugation, the reaction was loaded in a PCR reactor. The reaction conditions were as follows: (1) 25° C., 10 min; (2) 37° C., 120 min; (3) 85° C., 5 min; (4) 4° C., termination of the reaction. After the reaction, 20 μL RNase-free ddH2O was added to make up the final volume to 40 μL.
LightCycler 480 fluorescence quantitative PCR instrumentwas used, and the PCR reaction conditions were: 95° C. , 5 min for pre-denaturation, followed by the PCR amplification cycle: (1) 95° C., 10 s; (2) 55° C., 10 s; (3) 72° C., 20 s; a total of 40 cycles; 40° C. for 10 s in the end to cool down. The forward primer and reverse primer of the amplification reaction were designed and synthesized by Beijing Qing Ke New Industrial Biotechnology Co., Ltd. (U6 F primer: GCGCGTCGTGAAGCGTTC (SEQ ID NO: 23), U6 R primer: GTGCAGGGTCCGAGGT (SEQ ID NO: 24)).
3) The relative expression amount was calculated by the 2-ΔCt method.
5) Treatment group of single lipid and nucleic acid mixture: a mixture of 10 μL of single lipid (No. 41) with single-stranded sRNA mixure solution (PGY-sRNA-23, PGY-sRNA-26 and PGY-sRNA-32, 1 nmol each) was treated by heating method and then given to mice via intragastric administration.
2. 12 hours after intragastric administration, the blood was taken from the eyeball, and various tissues (liver/stomach/small intestine) was sampled. TRIzol was used for full lysis and the RNA was extracted to detect the amount of entry.

Structure (SMILES) | delivery of HJT-sRNA-m7 dsRNA into A549 cells (ddPCR) (A549 cells [1]) | entry of PGY-sRNA-6-Cy3 observed under confocal microscopy (A549 cells [2]) | delivery of sRNA single-stranded nucleic acid into mouse blood [3] | delivery of sRNA single-stranded nucleic acid into mouse stomach ([3]; FIG. 109, gavage) | delivery of sRNA single-stranded nucleic acid into mouse small intestine ([3]; FIG. 110, gavage) | delivery of sRNA single-stranded nucleic acid into mouse liver ([3]; FIG. 111, gavage)
CCCCCC/C=C\CCCCCCCC(=O)O[C@H](COC(=O)CCCCCCCCCCCCCCC)COP(=O)(O)OCCN [No. 38, (2-aminoethoxy) [(2R)-2-[(9Z)-hexadec-9-enoyloxy]-3-(hexadecanoyloxy)propoxy] phosphinic acid] | could effectively deliver HJT-sRNA-m7 dsRNA into A549 cells | could effectively deliver double-stranded nucleic acid into A549 cells | could effectively deliver sRNA single-stranded nucleic acid into mouse blood via oral administration; also recorded: the delivery effect was better than POPC and Lipofectamine RNAiMAX | – | – | –
CCCCCCCC/C=C\CCCCCCCCCCCC(=O)O[C@H](COC(=O)CCCCCCCCCCCCCCC)COP(=O)(O)OCCN [No. 40, (2-aminoethoxy) [(2R)-2-[(13Z)-docos-13-enoyloxy]-3-(hexadecanoyloxy)propoxy] phosphinic acid] | could effectively deliver HJT-sRNA-m7 dsRNA into A549 cells | could effectively deliver single-stranded RNA into A549 cells | could effectively deliver sRNA single-stranded nucleic acid into mouse blood via oral administration; also recorded: the delivery effect was better than POPC and Lipofectamine RNAiMAX | – | – | –
CCCCCCCCCCCCCCCCCCC[C@@H](O)[C@@H](N)CO [No. 41, Sphinganine (d22:0)] | could effectively deliver HJT-sRNA-m7 dsRNA into A549 cells; also recorded: the boiling method had better effects than reverse evaporation method | could effectively deliver double-stranded nucleic acid into A549 cells | could effectively deliver sRNA single-stranded nucleic acid into the mouse blood via oral administration; also recorded: the delivery effect was better than POPC and Lipofectamine RNAiMAX | could effectively deliver sRNA single-stranded nucleic acid into the mouse stomach via oral administration to protect sRNA from degradation | could effectively deliver sRNA single-stranded nucleic acid into the mouse small intestine via oral administration to protect sRNA from degradation | could effectively deliver sRNA single-stranded nucleic acid into the mouse liver via oral administration to protect sRNA from degradation
CCCCCCCC/C=C\CCCCCCCCCCCCCC(=O)O[C@H](COC(=O)CCCCCCCCCCCCCC)COP(=O)(O)OCCN [No. 64, 1-pentadecanoyl-2-nervonoyl-sn-glycero-3-phospho-ethanolamine] | – | could effectively deliver single-stranded RNA into A549 cells | could effectively deliver sRNA single-stranded nucleic acid into mouse blood via oral administration; also recorded: the delivery effect was better than POPC and Lipofectamine RNAiMAX | – | – | –
